# Source: article PMC12906832, “Transgenic Tobacco Plants Expressing Synthetic Peptides: A Functional and Structural Analysis for Pathogen Resistance” (Plant Biotechnology Journal, 2025)
# No end group written: not given here.
# Columns and labels:
# [1] = system: Pseudomonas syringae pv. tabaci cells; assay: Membrane permeabilization assay (propidium iodide uptake); assay type: cell-based; settings: within 30 min of treatment, 10 µM PI, 10 mM phosphate buffer pH 7.4, normalised to Polymyxin B, n = 3
# Protocol: Pseudomonas syringae pv. tabaci cells were prepared and incubated with Propidium Iodide. The increase in fluorescence intensity was checked upon the addition of peptides. For details, please see section 1.1 of Supporting Information.
# (§1) 1. Experimental Procedures
# (§2) 1.1. Membrane permeabilization assay
# (§3) Pseudomonas syringae pv. tabaci cells were grown till mid-logarithmic phase. The cells were […]
# (§4) obtain a suspension containing 10^5 CFU/ml. 10µM of Propidium Iodide (Sigma Aldrich Co., St.
# (§5) Louis, USA) was added to the cell suspension and incubated at room temperature, under shaking […]
# (§6) fluorescence intensity was measured at 25 °C for 30 min at an excitation and emission wavelength of 535 nm and 617 nm respectively. After obtaining the fluorescence intensity of the stabilized cells, peptides were added at increasing concentrations, and the increase in fluorescence intensity was recorded. Normalization was done using measurement of cells treated with Polymyxin B that served as control. […]
# (§7) HEK293 cell viability was monitored by MTT assay. […] Cell viability was then assessed by incubating the control and peptide treated cells using 100 µl of MTT (2mg/ml) for 3 h. The formazan crystals formed were dissolved in dimethyl sulfoxide (DMSO) and absorbance at 570 nm was recorded using SpectraMax M3 (Softmax Pro 6.3) multiplate reader. […] Cell viability was calculated using the equation: […]
# [2] = system: Xanthomonas campestris pv. vesicatoria, X. campestris pv. campestris, X. oryzae pv. oryzae, Pseudomonas syringae pv. tabaci; settings: 72 h
# HEK293 cells = assay: MTT cell viability assay; assay type: cell-based, human; settings: 24 h, concentrations up to 4× MIC99%, triplicate
# Protocol: For details, please see section 1.2 of Supporting Information.
# as §1, §2, §3, §4, §5
# as §6, with “recorded.” for “recorded. Normalization was done using measurement of cells treated with Polymyxin B that served as control.”
# as §7
# 1.3. […] A readseq program, (http://iubio.bio.indiana.edu/soft/molbio/readseq/) is used by the server that reads the protein sequences in standard formats like EMBL, FASTA, GCG or plain text format (Saha & Raghava, 2006). […]
# [3] = Plant extract stability assay (RP-HPLC); assay type: in vitro ADME, Nicotiana tabacum; settings: tobacco leaf extract (20% v/v) containing plant proteases; 1 mg peptide in 20% v/v tobacco leaf extract in 10 mM phosphate buffer pH 7.4, 37°C, stopped with 1% TFA, RP-HPLC C18 peak integration, mean ± SEM n = 3
# Protocol: The stability of VR18 and KG18 in the presence of plant proteases present in plant leaf extract was monitored using a modified version of a previously reported protocol (Li et al. [2002]). Briefly, 1 g of 1‐month‐old tobacco leaf ( Nicotiana tabacum ) was crushed in liquid nitrogen, followed by extraction in 10 mM phosphate buffer (pH 7.4). The suspension was pelleted at 13500× g for 5 min, and the supernatant was collected. 1 mg of the respective peptide was added to a stock of 20% v/v plant extract in 10 mM phosphate buffer (pH 7.4) and incubated at 37°C. 100 μL of aliquots were withdrawn at appropriate time intervals, and the reaction was stopped using 1% trifluoroacetic acid (TFA). Plant extract (20% v/v) was used as a negative control. The aliquots were subjected to a LC‐20AT reverse phase HPLC system (SHIMADZU, Japan) equipped with a Phenomenix C18 column (250 × 10 mm, pore size 100 Å, particle size 5 μm) at room temperature, using acetonitrile and water with 0.1% TFA as the solvents. A flow rate of 1 mL/min was maintained. The percentage of peptide remaining in the plant extract at different time intervals was analysed by peak integration using […] software, and the area obtained was normalised with respect to the free peptide without the plant extract.
substance,measurement,setting,value
Polymyxin B,propidium iodide (PI) uptake,[1],maximum PI uptake
KNKSRVARGWGRKCPLFG [KG18],IC50,[2],2.75 to 5.5 µM
same,minimal inhibitory concentration (MIC99%),[2],3 to 10 µM
same,cytotoxic effect on HEK 293 cells (MTT),HEK293 cells,no toxicity
same,half-life,[3],> 1 h
VARGWGRKCPLFGKNKSR [VR18],IC50,[2],1.5 to 4.25 µM
same,minimal inhibitory concentration (MIC99%),[2],3 to 10 µM
same,cytotoxic effect on HEK 293 cells (MTT),HEK293 cells,no toxicity
same,half-life,[3],> 1 h
